# Reference: paper PMC11173382, “In Vitro Investigations into the Potential Drug Interactions of Pseudoginsenoside DQ Mediated by Cytochrome P450 and Human Drug Transporters” (Molecules, 2024)
# Tests used:
# [1] = cited from earlier work
# CYP1A2 = target: T1, CYP1A2 (Homo sapiens, UniProt P05177); assay: CYP450 inhibition assay in human liver microsomes, CYP1A2; assay type: in vitro ADME
# T1 construct: tissue Corning 452117; host or cells: human liver microsomes
# T1 sequence (P05177 1-516): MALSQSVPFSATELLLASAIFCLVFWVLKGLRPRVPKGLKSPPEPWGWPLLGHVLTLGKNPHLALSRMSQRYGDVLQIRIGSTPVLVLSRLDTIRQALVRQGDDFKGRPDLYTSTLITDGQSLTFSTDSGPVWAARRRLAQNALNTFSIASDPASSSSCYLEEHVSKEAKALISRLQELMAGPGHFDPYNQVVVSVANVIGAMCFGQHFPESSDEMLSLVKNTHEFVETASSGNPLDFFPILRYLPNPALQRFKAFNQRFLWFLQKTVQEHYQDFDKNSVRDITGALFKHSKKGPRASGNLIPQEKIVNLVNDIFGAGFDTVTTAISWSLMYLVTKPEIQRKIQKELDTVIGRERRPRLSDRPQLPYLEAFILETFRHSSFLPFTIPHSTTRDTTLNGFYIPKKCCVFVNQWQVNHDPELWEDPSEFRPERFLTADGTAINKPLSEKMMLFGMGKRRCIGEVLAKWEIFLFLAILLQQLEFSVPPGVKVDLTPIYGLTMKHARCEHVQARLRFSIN
# Experimental: To evaluate the reliability and reproducibility of the CYP450 inhibition assay, we measured the inhibitory effects of selected positive control inhibitors of each CYP450 enzyme in human liver microsomes (HLM, Table 1, Figure 2). The potency of inhibition was estimated by observing the alteration in concentration of metabolites of CYP450 substrates (Table 1).
# Reagents preparation. […] The stock solution of PDQ (10 mM) was prepared with methanol and further diluted to the range of 3 µM to 3 mM with methanol to ensure that the solvent of different PDQ samples contained the same amount (1%) of methanol.
# The stock solutions of the positive control inhibitors and the probe substrates of CYP450 enzymes were prepared in methanol.
# CYP450 inhibition assay. […] The assay was conducted in polypropylene 96-well plates (2.2 mL/well, Apricot Designs Inc., Covina, CA, USA).
# The total volume of the reaction is 200 μL. The HLM mixtures (102 μL) containing individual probe substrates (Table 3), KH2PO4 buffer (100 mM, pH 7.4), and either PDQ or the positive control inhibitors (Table 3) were incubated for 10 min at 37 °C in a shaking incubator. Reactions were initiated by adding 98 μL NADPH (final concentration is 1.3 mM NADPH, 3 mM MgCl2 in 100 mM KH2PO4 buffer). The HLM reaction mixtures were shaken at 37 °C for various times (Table 4). The reaction time of CYP3A4 (midazolam), CYP2C19 and CYP2D6 were 3, 20 and 20 min, respectively, while the reactions of other CYP enzymes were terminated after 10 min. The reactions were quenched by adding 200 μL acetonitrile containing 3% formic acid and specific internal standards (Table 4). After shaking at 1000 rpm for 10 min, the reaction mixtures were centrifuged at 4000 rpm for 20 min. Supernatants were diluted with ultrapure water (Table 4) and shaken for 10 min at 1000 rpm. […] The substrates and analytes were analyzed by LC-MS/MS (API4000, Applied Biosystems, Singapore; HPLC, Shimadzu, Japan). […]
# Data analysis. […] The IC50 was determined by fitting the dependence of the relative remaining activity (y = Vi/V0) to the following three-parameter equation (Equation (1)). […]
smiles,measurement,setting,value
"CC(C)(O)[C@@H]1CC[C@@](C)([C@H]2CC[C@]3(C)[C@@H]2[C@H](O)C[C@@H]2[C@@]4(C)CC[C@H](O)C(C)(C)[C@@H]4CC[C@]23C)O1 [PDQ, (20S,24S)-dammar-20,24-epoxy-3β, 12β, 25-triol]",bioavailability,[1]; PDQ in gattate pills,62.13%
same,biological half-time (t1/2),[1]; rat plasma,5.97 ± 0.43 h
same,concentration at peak (Cmax),[1]; rat plasma,3265.12 ± 700.26 ng/mL
same,time to peak (Tmax),[1]; rat plasma,4.0 ± 0.0 h
same,Cmax,"[1]; rats, effective oral dosage 15 mg/kg, no reference given, read-out: peak concentration (Cmax)",6.5 µM
same,cumulative amount excreted through feces,"[1]; rats, over 96 h",55.39%
same,long-term accumulation in tissues,"[1]; rats, single oral dose of 30.0 mg/kg",no long-term accumulation
same,IC50,"CYP1A2; HLM 0.1 mg/mL, probe phenacetin 75 µM, 10 min",> 100 µM
same,effect on CYP1A2-catalyzed de-ethylation,"CYP1A2; PDQ within the range of 0.03 to 30.0 μM, HLM",activated
same,percentage mean control activity of CYP1A2,"CYP1A2; highest tested dose of PDQ (100 μM), HLM",100.8%
